Results on one compound are retold here after EPA's ToxValDB 9.5 (doi:10.2903/j.efsa.2013.3212).

Converted amounts (≈) assume the structure as drawn. Bounds are passed on as bounds.

One data set concerns Pleurozium sp. The following applies: acute; duration: 72 hours; biomass.
The test system of the next data set is Canidae. The following applies: chronic; duration: 1 years; oral; Dog Other; hematological.
Another data set concerns Apis mellifera. Particulars: acute; duration: 48 hours; oral; unspecified; mortality.
The subject of a further data set is Daphnia magna. Particulars: chronic/long-term; duration: 21 days; reproduction.
Another data set has as its system Oncorhynchus mykiss. Particulars: acute; duration: 96 hours; mortality.
A further data set has as its system Coturnix japonica. The following applies: acute, oral, mortality.
The subject of another data set is Anas platyrhynchos. Particulars: for LD50: oral, mortality.
In another data set the test system is Tagia sp. Particulars: acute; duration: 14 days; mortality.
In the next data set the test system is Plant. Particulars: not reported; no effects.
A further data set relates to Rattus norvegicus. The following applies: for NOAEL: hematological.
The subject of another data set is Colinus virginianus. Particulars: reproduction developmental; reproduction.
A further data set has as its system Typhlodromus pyri. The experiment in a line: LR50; higher = less toxic.

For orientation: NOAEL means the highest tested level that showed no adverse finding. For the compound `CCCCCCCCCCCCC1=C(OC(C)=O)C(=O)c2ccccc2C1=O` [Acequinocyl], the LC50 with Pleurozium sp. is 0.93 µg/mL (≈ 2.42 µM); in the data set on Oncorhynchus mykiss, 65 µg/mL (≈ 169 µM); in the data set with Tagia sp., more than 1000 mg/kg. The NOAEL with Canidae amounted to 5 mg/kg-day; in the data set with Rattus norvegicus (chronic, duration: 2 years), 2.3 mg/kg-day; with Rattus norvegicus (repeat dose other, oral), 8 mg/kg-day; in the data set on Rattus norvegicus (reproduction developmental), 6.9 mg/kg-day. In addition, the LD50 in the data set with Apis mellifera is more than 100 µg/piece; in the data set with Coturnix japonica (diet) it was more than 847 mg/kg; in the data set with Coturnix japonica, more than 1940 mg/kg; with Anas platyrhynchos (acute, unspecified), more than 1940 mg/kg; with Anas platyrhynchos (short-term, feed) it was more than 1340 mg/kg; in the data set on Rattus norvegicus (acute, oral, mortality), more than 4860 mg/kg. Moreover, the NOEC with Daphnia magna is 0.00098 mg/L. For the same compound, the NOEL in the data set on Anas platyrhynchos (reproductive, reproduction) was determined as 7.48 mg/kg; in the data set with Colinus virginianus, 217 mg/kg-day. In the data set with Plant, this compound displayed an LEL of 5000 g/ha. In addition, the LR50 in the data set on Typhlodromus pyri (acute, duration: 7 days, mortality) worked out at 8.52 g/ha; in the data set with Typhlodromus pyri (not reported, reproduction) it was 10 g/ha.
